Measurements from PubChem BioAssay (NCI).
Several values for one entry are separate records, joined by “and”; a condition that tells them apart may be missing. Equal values may be shown once.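 Following 48 hours of exposure in 96-well plates, responses at five concentrations were used to interpolate endpoints linearly. Here, GI50 denotes the concentration required for 50% inhibition of growth. TGI is the concentration that stops growth completely.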

Key:
Assay in all cases: NCI-60 cell line screen, 48 h
LOX IMVI melanoma = system: LOX IMVI melanoma
NCI/ADR-RES ovarian = system: NCI/ADR-RES ovarian
CAKI-1 renal = system: CAKI-1 renal
T-47D breast = system: T-47D breast
A549 NSCLC = system: A549 NSCLC
SNB-75 CNS = system: SNB-75 CNS
UACC-257 melanoma = system: UACC-257 melanoma
HOP-62 NSCLC = system: HOP-62 NSCLC
PC-3 prostate = system: PC-3 prostate
HCC-2998 colon = system: HCC-2998 colon

Row | Structure (SMILES) | TGI (LOX IMVI melanoma) | TGI (NCI/ADR-RES ovarian) [µM] | TGI (CAKI-1 renal) | TGI (T-47D breast) | TGI (A549 NSCLC) [µM] | GI50 (SNB-75 CNS) | TGI (SNB-75 CNS) [µM] | TGI (UACC-257 melanoma) | TGI (HOP-62 NSCLC) | TGI (PC-3 prostate) [µM] | TGI (HCC-2998 colon) [µM] | GI50 (LOX IMVI melanoma) | GI50 (NCI/ADR-RES ovarian) | GI50 (CAKI-1 renal) | GI50 (T-47D breast) | GI50 (A549 NSCLC) | GI50 (UACC-257 melanoma) [µM] | GI50 (HOP-62 NSCLC) | GI50 (PC-3 prostate) | GI50 (HCC-2998 colon)
1 | C[C@H]1/C(=C/C(=O)OCCN(C)C)CC[C@H]2[C@H]1C(=O)C[C@H]1C(C)(C)[C@@H](O)CC[C@]21C | > 100 µM | > 100 | > 100 µM | > 100 µM | > 100 | > 100 µM | > 100 | > 100 µM | > 100 µM | > 100 | > 100 | – | – | – | – | – | – | – | – | –
2 | C=C1CC2(CC(c3ccccc3Cl)OC(c3ccccc3Cl)C2)OC1=O (stereo not given) | 2.72 µM | 8.55 | 5.11 µM | 3.22 µM | 21.2 | – | 8.41 | 5.14 µM | 21.1 µM | 6.84 | 7.74 | – | – | – | – | – | – | – | – | –
3 | CO[C@H]1C=CO[C@@]2(C)Oc3c(C)c(O)c4c(O)c(c(CN5CCN(C)CC5)c(O)c4c3C2=O)NC(=O)/C(C)=C\C=C[C@H](C)[C@H](O)C(C)[C@@H](O)C(C)[C@H](OC(C)=O)[C@@H]1C (stereo not given in full) | > 71.9 µM | > 100 | > 100 µM | > 100 µM | > 100 | – | > 100 | > 72.8 µM | > 100 µM | > 100 | > 100 | – | – | – | – | – | – | – | – | –
4 | Cn1c(=O)c(Oc2ccc(F)cc2F)cc2cnc(NC(C)(C)CO)nc21 | > 25 µM | > 25 | > 25 µM | > 25 µM | > 25 | > 25 µM | > 25 | > 25 µM | > 25 µM | > 25 | > 25 | > 25 µM | > 25 µM | > 25 µM | 13.7 µM | > 25 µM | > 25 | > 25 µM | > 25 µM | > 25 µM
5 | CCN(CC)CCCC(C)Nc1ccnc2cc(Cl)ccc12 (stereo not given) | 48.8 µM and 45 µM | > 100 | 79.7 µM and 55.7 µM | > 100 µM and 64.1 µM | > 100 | > 100 µM | > 100 | 35.7 µM and > 62.1 µM | > 100 µM | > 100 | 48.8 | 18.4 µM | – | 28.8 µM | > 100 µM | 64.9 µM | 19.8 | > 100 µM | 98.4 µM | –
6 | CCCCOC(=O)c1ccc(N)cc1 | > 100 µM | > 100 | > 100 µM | > 100 µM | > 100 | 41 µM | > 100 | > 100 µM | > 100 µM | > 100 | 66.2 | 30.8 µM | 92.4 µM | 11.4 µM | 47.6 µM | 32.3 µM | 52.2 | > 100 µM | 9.9 µM | 22.7 µM
7 | O=C(Nc1ccc(Cc2ccccc2)cc1)Nc1nn(C(=O)Nc2ccc(Cc3ccccc3)cc2)c2ccccc12 | > 100 µM | > 100 | > 100 µM | > 100 µM | > 100 | 33.8 µM | > 100 | > 100 µM | > 100 µM | > 100 | > 100 | 71 µM | > 100 µM | > 100 µM | > 100 µM | > 100 µM | > 100 | 59.7 µM | > 100 µM | > 100 µM
8 | CN(C)CCCN(CCC1CCCCC1)CCC1CCCCC1 | 2.91 µM | 7 | 8.06 µM | 3.52 µM | 8.5 | 1.8 µM | 6.5 | 2.82 µM | 16.3 µM | 17.9 | 0.915 | 1.47 µM | 0.683 µM | 2.65 µM | 1.57 µM | 2.69 µM | 0.77 | 6.06 µM | 4.47 µM | 0.325 µM
9 | CSc1c(C2=C(c3cn(C)c4ccccc34)C(=O)NC2=O)c2ccccc2n1C | > 25 µM | > 25 | > 20.4 µM | > 25 µM | > 25 | 0.728 µM | > 12.6 | > 25 µM | > 25 µM | > 25 | > 25 | 1.54 µM | 1.02 µM | 0.741 µM | 1.15 µM | 1.14 µM | 1.41 | 1.38 µM | 0.795 µM | 5.31 µM
10 | O=C(O)[C@H](Cc1c[nH]c2ccccc12)N1C(=O)c2ccccc2C1=O | > 100 µM | > 100 | > 100 µM | > 100 µM | > 100 | – | > 100 | > 100 µM | > 100 µM | > 100 | > 100 | – | – | – | – | – | – | – | – | –
11 | O=C(/C=C/c1ccc(Cl)cc1)c1ccccc(=O)c1O | 13 µM | 2.42 | 2.79 µM | 19.8 µM | > 39.2 | – | 12.3 | 14.6 µM | 21.1 µM | 20 | 8.29 | – | – | – | – | – | – | – | – | –
12 | C=C(CN1CCN(c2ccc(C(F)(F)F)cc2)CC1)c1ccc(C(=O)Nc2ccccc2N)cc1 | > 100 µM | > 100 | 44 µM | > 100 µM | 45.5 | 12.4 µM | 51.8 | > 100 µM | > 45 µM | > 65.7 | > 100 | 11.1 µM | 3.37 µM | 6.08 µM | 21.8 µM | 6.43 µM | 2.39 | 8.38 µM | 1.29 µM | 30.2 µM
13 | COC(=O)C1=C(O)[C@H](C(=O)OC)C2(O)C(C(=O)OC)[C@H](c3ccc(OC(=O)C(C)c4ccccc4)cc3)C[C@@H]1[C@@H]2C(=O)OC (stereo not given in full) | 16.2 µM | > 50 | > 50 µM | > 50 µM | > 50 | 16.6 µM | > 50 | > 50 µM | > 50 µM | > 50 | 20.6 | 6.85 µM | > 50 µM | 15.2 µM | 12.3 µM | 19.4 µM | 41.1 | 23.8 µM | 36.2 µM | 10.7 µM
14 | Cc1ccc(Nc2nccc(N(C)c3ccc4c(C)n(C)nc4c3)n2)cc1S(N)(=O)=O | – | > 100 | > 100 µM | – | > 100 | 2.39 µM and 1.03 µM and 5.83 µM | – | > 10 µM and 51.5 µM | > 100 µM and > 10 µM and 42.5 µM | > 100 | > 100 | 2.88 µM and 0.479 µM and 3.93 µM | 45.8 µM and 23.1 µM | 1.43 µM and 4.39 µM | 3.91 µM and 1.58 µM and 3.98 µM | 4.63 µM and 3.58 µM and 10 µM | – | 8.64 µM and 1.51 µM and 11.7 µM | 4.98 µM and 7.27 µM and 7.73 µM | > 100 µM and 29.8 µM
